Source: ChEMBL document CHEMBL1671732, “No evidence for induction of ABC transporters in peripheral blood mononuclear cells in humans after 14 days of efavirenz treatment” (Antimicrob Agents Chemother, 2010)

Assays:
[1] = Half life in healthy human plasma at 400 mg, po measured on day 1 post dose by liquid chromatography-tandem mass spectrometry; format: ADME, organism-based
[2] = Apparent oral clearance in healthy human plasma at 400 mg, po qd for 14 days by liquid chromatography-tandem mass spectrometry; format: ADME, organism-based
[3] = system: Homo sapiens; assay: Volume of distribution in healthy human plasma at 400 mg, po qd for 14 days by liquid chromatography-tandem mass spectrometry; format: ADME, organism-based; settings: in vivo, 336 h
[4] = Apparent oral clearance in healthy human plasma at 400 mg, po measured on day 1 post dose by liquid chromatography-tandem mass spectrometry; format: ADME, organism-based
[5] = system: Homo sapiens; assay: Volume of distribution in healthy human plasma at 400 mg, po measured on day 1 post dose by liquid chromatography-tandem mass spectrometry; format: ADME, organism-based; settings: in vivo
[6] = Tmax in healthy human plasma at 400 mg, po measured on day 1 post dose by liquid chromatography-tandem mass spectrometry; format: ADME, organism-based
[7] = Tmax in healthy human plasma at 400 mg, po qd for 14 days by liquid chromatography-tandem mass spectrometry; format: ADME, organism-based
[8] = Cmax in healthy human plasma at 400 mg, po measured on day 1 post dose by liquid chromatography-tandem mass spectrometry; format: ADME, organism-based; parameters: dose 400 mg, route oral
[9] = Cmax in healthy human plasma at 400 mg, po qd for 14 days by liquid chromatography-tandem mass spectrometry; format: ADME, organism-based; parameters: dose 400 mg, route oral
[10] = Half life in healthy human plasma at 400 mg, po qd for 14 days by liquid chromatography-tandem mass spectrometry; format: ADME, organism-based
[11] = Ratio of drug concentration in PBMCs to plasma of healthy human administered at 400 mg, po measured after 24 hrs on day 1 post dose; format: ADME, organism-based, PBMC
[12] = Ratio of drug concentration in PBMCs to plasma of healthy human administered at 400 mg, po measured after 5 hrs on day 1 post dose; format: ADME, organism-based, PBMC
[13] = Ratio of drug concentration in PBMCs to plasma of healthy human administered at 400 mg, po qd for 14 days measured after 5 hrs post last dose; format: ADME, organism-based, PBMC
[14] = Drug concentration in PBMCs of healthy human at 400 mg, po measured after 5 hrs on day 1 post dose by liquid chromatography-tandem mass spectrometry; format: ADME, organism-based, PBMC; settings: read-out: Drug uptake
[15] = Drug concentration in PBMCs of healthy human at 400 mg, po ad for 14 days measured after 5 hrs post last dose by liquid chromatography-tandem mass spectrometry; format: ADME, organism-based, PBMC; settings: read-out: Drug uptake
[16] = Drug concentration in PBMCs of healthy human at 400 mg, po measured after 24 hrs on day 1 post dose by liquid chromatography-tandem mass spectrometry; format: ADME, organism-based, PBMC; settings: read-out: Drug uptake
[17] = Drug concentration in PBMCs of healthy human at 400 mg, po ad for 14 days measured after 24 hrs post last dose by liquid chromatography-tandem mass spectrometry; format: ADME, organism-based, PBMC; settings: read-out: Drug uptake
[18] = system: Plasma; assay: Fraction unbound in healthy human plasma at 400 mg, po measured on day 1 post dose by liquid chromatography-tandem mass spectrometry; format: ADME, organism-based; settings: in vivo
[19] = system: Plasma; assay: Fraction unbound in healthy human plasma at 400 mg, po qd for 14 days by liquid chromatography-tandem mass spectrometry; format: ADME, organism-based; settings: in vivo, 336 h
[20] = system: Homo sapiens; assay: Reduction in ABCB1 mRNA expression in healthy human at 400 mg, po qd for 14 days by RT-PCR; format: ADME, organism-based; settings: in vivo, 336 h
[21] = system: Homo sapiens; assay: Reduction in ABCC1 mRNA expression in healthy human at 400 mg, po qd for 14 days by RT-PCR; format: ADME, organism-based; settings: in vivo, 336 h
[22] = system: Homo sapiens; assay: Reduction in ABCC2 mRNA expression in healthy human at 400 mg, po qd for 14 days by RT-PCR; format: ADME, organism-based; settings: in vivo, 336 h
[23] = system: Homo sapiens; assay: Effect on P-gp activity in PBMCs isolated from healthy human receiving compound dose at 400 mg, po qd for 14 days by rhodamine -123 efflux assay; format: ADME, organism-based; settings: in vivo, 336 h
[24] = Ratio of drug concentration in PBMCs to plasma of healthy human administered at 400 mg, po qd for 14 days measured after 24 hrs post last dose; format: ADME, organism-based, PBMC

half-life [1]: 78.7 h | CL/F [2]: 148 mL/min | Vd [3]: 401.6 L | CL/F [4]: 70.7 mL/min | Vd [5]: 462.8 L | Tmax [6]: 2.3 h | Tmax [7]: 2.2 h | Cmax [8]: 2740 ng/mL | Cmax [9]: 3760 ng/mL | half-life [10]: 33 h | Kp at 24 h [11]: 1.53 | Kp at 5 h [12]: 1.63 | Kp at 5 h [13]: 1.76 | concentration at 5 h [14]: 1470 ng/mL | concentration at 5 h [15]: 3600 ng/mL | concentration at 24 h [16]: 974 ng/mL | concentration at 24 h [17]: 2030 ng/mL | Fu [18]: 0.47% | Fu [19]: 0.52% | Kp at 24 h [24]: 1.36
SMILES: O=C1Nc2ccc(Cl)cc2[C@@](C#CC2CC2)(C(F)(F)F)O1 [EFAVIRENZ]
Activity [20]: Non-toxic | Activity [21]: Non-toxic | Activity [22]: Non-toxic | Activity [23]: Non-toxic
